Reference: US20250135002A1, “COMPOSITIONS FOR AND METHOD OF EFFECTING TUMOR CELL DEATH” (Duke University, priority 2022, published 2025)
Read-outs that look alike come from different tables or passages of the source.

System: c1498 murine AML (Acute Myeloid Leukemia) cells
Test: Survival of FACS-sorted phosphatidylserine-positive AML cells after cytarabine treatment
Format: cell-based
Settings: Mus musculus, 1 μM cytarabine for 24 hrs, live cell number estimated from growth rates
Source text: FIG. 1A-FIG. 1C show the survival of phosphatidylserine-expressing AML cells. […] The rectangles indicate the sorted cells. […] About 1000 each of the sorted cells were placed into multi-well plates. When the cells reached sufficient numbers, they were counted at different time points to measure their growth rates. The growth rates were then used to estimate the initial live cell numbers. The following formula was used to calculate the minimal initial live cell numbers: Minimal initial cell number=Total cell population/[…] (days to reach the current cell number).
To determine whether cells expressing high-level of PS expression on the cell surface were destined to die, the viability of c1498 murine AML (Acute Myeloid Leukemia) cells treated with cytarabine (part of a classical chemotherapy regimen for human AML) was examined.
Specifically, whether PS-expressing acute myelocytic leukemia (AML) cells survived was examined. FACS was used to identify and sort c1498 cells treated with 1 μM cytarabine (for 24 hrs) and with high PS-expression. The sorted cells were then seeded into 6-well dishes and the ability to survive and proliferate was measured. FIG. 1A-FIG. 1B). […]

## Nc1ccn([C@@H]2O[C@H](CO)[C@@H](O)[C@@H]2O)c(=O)n1 [cytarabine]
FACS-sorted PS+7AAD+ (late apoptotic) cells, read-out: proportion of cytarabine-treated PS+7AAD+ c1498 cells that remained viable and could proliferate
  viability at 1 µM: ~8%
FACS-sorted PS+7AAD- (early apoptotic) cells, read-out: proportion of cytarabine-treated PS+7AAD- c1498 cells that remained viable and could proliferate
  viability at 1 µM: ~25%
